Data reported in patent US11702427B2 (priority 2018, dated 2023).
pEC50: −log10 of the molar value.

Test system: HBsAg
Assay: HBsAg assay: inhibition of HBsAg in HepG2.2.15 cells (CLIA immunoassay of supernatant)
Format: cell-based, hepatitis B virus (HBV)
Details: read-out: sAg EC50; HepG2.2.15 cells; supernatant collected at day 6 after exposure; HBsAg chemiluminescence immunoassay
Protocol: Inhibition of HBsAg was determined in HepG2.2.15 cells. Cells were maintained in culture medium containing 10% fetal calf serum, […], Glutamine, penicillin/streptomycin. Cells were seeded in 96-well collagen-coated plate at a density of 30,000 cells/well. Serially diluted compounds were added to cells next day at the final DMSO concentration of 0.5%. Cells were incubated with compounds for 2-3 days, after which medium was removed. Fresh medium containing compounds was added to cells for additional 3-4 days. At day 6 after exposure of compounds, supernatant was collected, the HBsAg immunoassay (microplate-based chemiluminescence immunoassay kits, CLIA, Autobio Diagnosics Co., Zhengzhou, China, Catalog #CL0310-2) was used to determine the level of HBsAg according to manufactory instruction. Dose-response curves were generated and the EC50 value (effective concentrations that achieved 50% inhibitory effect) were determined using XLfit software. In addition, cells can be seeded at a density of 5,000 cells/well for determination of cell viability in the presence and absence of compounds by using CellTiter-Glo reagent (Promega). Tables 1-3 show EC50 values obtained by the HBsAg assay for selected compounds.

Compound | pEC50
COCCCOc1cc2c(cc1OC)-c1[nH]c(=O)c(C(=O)O)cc1C(C(C)C)C2 (single isomer, unassigned) [Example 2, 5-Isopropyl-9-methoxy-8-(3-methoxypropoxy)-2-oxo-1,2,5,6-tetrahydrobenzo[h]quinoline-3-carboxylic acid] | 7.96
COCCCOc1cc2c(cc1OC)-c1[nH]c(=O)c(C(=O)O)cc1C(C(C)C)C2 (single isomer, unassigned) [Example 3, 5-Isopropyl-9-methoxy-8-(3-methoxypropoxy)-2-oxo-1,2,5,6-tetrahydrobenzo[h]quinoline-3-carboxylic acid] | 5.70
COCCCOc1cc2c(cc1OC)-c1[nH]c(=O)c(C(=O)O)cc1C(C)(C(C)C)C2 (single isomer, unassigned) [Example 7, 5-Isopropyl-9-methoxy-8-(3-methoxypropoxy)-5-methyl-2-oxo-1,6-dihydrobenzo[h]quinoline-3-carboxylic acid] | 7.66
COCCCOc1cc2c(cc1OC)-c1[nH]c(=O)c(C(=O)O)cc1C(C)(C(C)C)C2 (single isomer, unassigned) [Example 8, 5-Isopropyl-9-methoxy-8-(3-methoxypropoxy)-5-methyl-2-oxo-1,6-dihydrobenzo[h]quinoline-3-carboxylic acid] | 5.60
COCCCOc1cc2c(cc1Cl)-c1[nH]c(=O)c(C(=O)O)cc1C(C)(C(C)C)C2 (single isomer, unassigned) [Example 10, 9-Chloro-5-isopropyl-8-(3-methoxypropoxy)-5-methyl-2-oxo-1,6-dihydrobenzo[h]quinoline-3-carboxylic acid] | 7.60
COCCCOc1cc2c(cc1Cl)-c1[nH]c(=O)c(C(=O)O)cc1C(C)(C(C)C)C2 (single isomer, unassigned) [Example 11, 9-Chloro-5-isopropyl-8-(3-methoxypropoxy)-5-methyl-2-oxo-1,6-dihydrobenzo[h]quinoline-3-carboxylic acid] | 6.60
COCCCOc1cc2c(cc1Cl)-c1[nH]c(=O)c(C(=O)O)c(O)c1C(C)(C(C)C)C2 (single isomer, unassigned) [Example 15, 9-Chloro-4-hydroxy-5-isopropyl-8-(3-methoxypropoxy)-5-methyl-2-oxo-1,2,5,6-tetrahydrobenzo[h]quinoline-3-carboxylic acid] | 7.74
COCCCOc1cc2c(cc1Cl)-c1[nH]c(=O)c(C(=O)O)c(O)c1C(C)(C(C)C)C2 (single isomer, unassigned) [Example 16, 9-Chloro-4-hydroxy-5-isopropyl-8-(3-methoxypropoxy)-5-methyl-2-oxo-1,2,5,6-tetrahydrobenzo[h]quinoline-3-carboxylic acid] | 5.70
COCCCOc1cc2c(nc1Cl)-c1[nH]c(=O)c(C(=O)O)c(O)c1C(C(C)C)C2 (single isomer, unassigned) [Example 27, 9-Chloro-4-hydroxy-5-isopropyl-8-(3-methoxypropoxy)-2-oxo-1,2,5,6-tetrahydro-1,10-phenanthroline-3-carboxylic acid] | 8.70
COCCCOc1cc2c(nc1Cl)-c1[nH]c(=O)c(C(=O)O)c(O)c1C(C(C)C)C2 (single isomer, unassigned) [Example 28, 9-Chloro-4-hydroxy-5-isopropyl-8-(3-methoxypropoxy)-2-oxo-1,2,5,6-tetrahydro-1,10-phenanthroline-3-carboxylic acid] | 7.37
COCCCOc1cc2c(cc1OC)-c1[nH]c(=O)c(C(=O)O)c(O)c1C(C)(C(C)C)C2 (single isomer, unassigned) [Example 31, 4-Hydroxy-5-isopropyl-9-methoxy-8-(3-methoxypropoxy)-5-methyl-2-oxo-1,2,5,6-tetrahydrobenzo[h]quinoline-3-carboxylic acid] | 7.57
COCCCOc1cc2c(cc1OC)-c1[nH]c(=O)c(C(=O)O)c(O)c1C(C)(C(C)C)C2 (single isomer, unassigned) [Example 32, 4-Hydroxy-5-isopropyl-9-methoxy-8-(3-methoxypropoxy)-5-methyl-2-oxo-1,2,5,6-tetrahydrobenzo[h]quinoline-3-carboxylic acid] | 5.00
COCCCOc1cc2c(nc1OC)-c1[nH]c(=O)c(C(=O)O)c(O)c1C(C(C)C)C2 (single isomer, unassigned) [Example 34, 4-Hydroxy-5-isopropyl-9-methoxy-8-(3-methoxypropoxy)-2-oxo-1,2,5,6-tetrahydro-1,10-phenanthroline-3-carboxylic acid] | 8.52
COCCCOc1cc2c(nc1OC)-c1[nH]c(=O)c(C(=O)O)c(O)c1C(C(C)C)C2 (single isomer, unassigned) [Example 35, 4-Hydroxy-5-isopropyl-9-methoxy-8-(3-methoxypropoxy)-2-oxo-1,2,5,6-tetrahydro-1,10-phenanthroline-3-carboxylic acid] | 6.82
COCCCOc1cc2c(nc1OC)-c1[nH]c(=O)c(C(=O)O)c(O)c1C(C(C)(C)C)C2 (single isomer, unassigned) [Example 37, 5-(tert-Butyl)-4-hydroxy-9-methoxy-8-(3-methoxypropoxy)-2-oxo-1,2,5,6-tetrahydro-1,10-phenanthroline-3-carboxylic acid] | 9.00
COCCCOc1cc2c(nc1OC)-c1[nH]c(=O)c(C(=O)O)c(O)c1C(C(C)(C)C)C2 (single isomer, unassigned) [Example 38, 5-(tert-Butyl)-4-hydroxy-9-methoxy-8-(3-methoxypropoxy)-2-oxo-1,2,5,6-tetrahydro-1,10-phenanthroline-3-carboxylic acid] | 7.46
CCOc1nc2c(cc1OCCCOC)CC(C(C)C)c1c-2[nH]c(=O)c(C(=O)O)c1O (single isomer, unassigned) [Example 40, 9-Ethoxy-4-hydroxy-5-isopropyl-8-(3-methoxypropoxy)-2-oxo-1,2,5,6-tetrahydro-1,10-phenanthroline-3-carboxylic acid] | 7.06
CCOc1nc2c(cc1OCCCOC)CC(C(C)C)c1c-2[nH]c(=O)c(C(=O)O)c1O (single isomer, unassigned) [Example 41, 9-Ethoxy-4-hydroxy-5-isopropyl-8-(3-methoxypropoxy)-2-oxo-1,2,5,6-tetrahydro-1,10-phenanthroline-3-carboxylic acid] | 9.00
COCCCOc1cc2c(nc1OC)-c1[nH]c(=O)c(C(=O)O)cc1C(C(C)C)C2 (single isomer, unassigned) [Example 44, 5-Isopropyl-9-methoxy-8-(3-methoxypropoxy)-2-oxo-1,2,5,6-tetrahydro-1,10-phenanthroline-3-carboxylic acid] | 8.70
COCCCOc1cc2c(nc1OC)-c1[nH]c(=O)c(C(=O)O)cc1C(C(C)C)C2 (single isomer, unassigned) [Example 45, 5-Isopropyl-9-methoxy-8-(3-methoxypropoxy)-2-oxo-1,2,5,6-tetrahydro-1,10-phenanthroline-3-carboxylic acid] | 7.80
COCCCOc1cc2c(nc1OC)-c1[nH]c(=O)c(C(=O)O)cc1C(C(C)(C)C)C2 (single isomer, unassigned) [Example 47, 5-(tert-Butyl)-9-methoxy-8-(3-methoxypropoxy)-2-oxo-1,2,5,6-tetrahydro-1,10-phenanthroline-3-carboxylic acid] | 9.00
COCCCOc1cc2c(nc1OC)-c1[nH]c(=O)c(C(=O)O)cc1C(C(C)(C)C)C2 (single isomer, unassigned) [Example 48, 5-(tert-Butyl)-9-methoxy-8-(3-methoxypropoxy)-2-oxo-1,2,5,6-tetrahydro-1,10-phenanthroline-3-carboxylic acid] | 7.38
COCCCOc1cc2c(nc1OC)-c1[nH]c(=O)c(C(N)=O)c(O)c1C(C(C)(C)C)C2 (single isomer, unassigned) [Example 60, 5-(tert-Butyl)-4-hydroxy-9-methoxy-8-(3-methoxypropoxy)-2-oxo-1,2,5,6-tetrahydro-1,10-phenanthroline-3-carboxamide] | 8.70
COCCCOc1cc2c(nc1OC)-c1[nH]c(=O)c(C(N)=O)c(O)c1C(C(C)(C)C)C2 (single isomer, unassigned) [Example 61, 5-(tert-Butyl)-4-hydroxy-9-methoxy-8-(3-methoxypropoxy)-2-oxo-1,2,5,6-tetrahydro-1,10-phenanthroline-3-carboxamide] | 6.52
COCCCOc1cc2c(nc1Cl)-c1[nH]c(=O)c(C(=O)O)c(O)c1C(C(C)C)CO2 (single isomer, unassigned) [Example 75, 2-Chloro-8-hydroxy-7-isopropyl-3-(3-methoxypropoxy)-10-oxo-6,7,10,11-tetrahydrooxepino[3,2-b:4,5-b′]dipyridine-9-carboxylic acid] | 7.66
COCCCOc1cc2c(nc1Cl)-c1[nH]c(=O)c(C(=O)O)c(O)c1C(C(C)C)CO2 (single isomer, unassigned) [Example 76, 2-Chloro-8-hydroxy-7-isopropyl-3-(3-methoxypropoxy)-10-oxo-6,7,10,11-tetrahydrooxepino[3,2-b:4,5-b′]dipyridine-9-carboxylic acid] | 6.25
COCCCOc1cc2c(nc1Cl)-c1[nH]c(=O)c(C(=O)O)c(O)c1C(C(C)(C)C)CO2 (single isomer, unassigned) [Example 77, 7-(tert-Butyl)-2-chloro-8-hydroxy-3-(3-methoxypropoxy)-10-oxo-6,7,10,11-tetrahydrooxepino[3,2-b:4,5-b′]dipyridine-9-carboxylic acid] | 8.22
